Measured values reported in publication PMC12262901, “Natural product-mediated reaction hijacking mechanism validates Plasmodium aspartyl-tRNA synthetase as an antimalarial drug target” (PLOS Pathogens, 2025).

Key:
[1] = target: T1, native length PvAspRS (51-631) (Plasmodium vivax, UniProt A5K9Y2); experiment: differential scanning fluorimetry after […] h incubation with substrates; type: binding; settings: read-out: dTm
T1 construct: gene PVX_081610; residues 51-631, codon-optimised, expressed in E. coli BL21(DE3), N-terminal His-tag removed with TEV protease, homodimer
T1 sequence (A5K9Y2 51-631): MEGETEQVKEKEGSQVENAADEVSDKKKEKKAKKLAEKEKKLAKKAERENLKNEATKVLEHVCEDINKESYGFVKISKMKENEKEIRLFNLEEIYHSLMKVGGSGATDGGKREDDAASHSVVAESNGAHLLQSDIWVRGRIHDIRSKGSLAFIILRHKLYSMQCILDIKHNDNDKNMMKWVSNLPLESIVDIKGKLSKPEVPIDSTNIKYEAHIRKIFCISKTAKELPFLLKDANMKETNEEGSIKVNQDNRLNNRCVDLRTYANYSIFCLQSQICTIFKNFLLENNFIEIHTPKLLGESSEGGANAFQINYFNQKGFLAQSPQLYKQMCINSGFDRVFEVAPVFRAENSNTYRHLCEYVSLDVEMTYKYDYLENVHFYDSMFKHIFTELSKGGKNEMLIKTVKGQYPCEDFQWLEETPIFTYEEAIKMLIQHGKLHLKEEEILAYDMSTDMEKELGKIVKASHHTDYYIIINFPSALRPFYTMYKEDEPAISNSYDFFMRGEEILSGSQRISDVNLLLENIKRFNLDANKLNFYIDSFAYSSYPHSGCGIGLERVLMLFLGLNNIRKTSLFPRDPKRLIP

[2] = target: native length PfAspRS (49-626), Plasmodium falciparum cytoplasmic aspartyl tRNA synthetase (P. falciparum); experiment: SEC; gel filtration after removal of the His-tags; 25 mM or 50 mM Tris-HCl pH 8.0, 150 mM NaCl, 0.5 or 1 mM TCEP
[3] = target: native length PfAspRS (49-626), Plasmodium falciparum cytoplasmic aspartyl tRNA synthetase (P. falciparum); experiment: AUC; sedimentation velocity, c(s) model; PfAspRS at 1, 0.6 and 0.2 mg/mL in 50 mM Tris pH 8.0, 150 mM NaCl, 1 mM TCEP; 200,000 g, 20°C, absorbance at 290 nm
[4] = target: T2, truncated PvAspRS (96-631) (Plasmodium vivax, UniProt A5K9Y2); experiment: X-ray crystal structure, […] Å; type: binding; settings: active site, both chains; crystallised with ATP and L-Asp
T2 construct: gene PVX_081610; residues 96-631, lacks N-terminal extension, pETM-41 vector, expressed in E. coli BL21(DE3), tag removed with TEV protease, homodimer
T2 sequence (A5K9Y2 96-631): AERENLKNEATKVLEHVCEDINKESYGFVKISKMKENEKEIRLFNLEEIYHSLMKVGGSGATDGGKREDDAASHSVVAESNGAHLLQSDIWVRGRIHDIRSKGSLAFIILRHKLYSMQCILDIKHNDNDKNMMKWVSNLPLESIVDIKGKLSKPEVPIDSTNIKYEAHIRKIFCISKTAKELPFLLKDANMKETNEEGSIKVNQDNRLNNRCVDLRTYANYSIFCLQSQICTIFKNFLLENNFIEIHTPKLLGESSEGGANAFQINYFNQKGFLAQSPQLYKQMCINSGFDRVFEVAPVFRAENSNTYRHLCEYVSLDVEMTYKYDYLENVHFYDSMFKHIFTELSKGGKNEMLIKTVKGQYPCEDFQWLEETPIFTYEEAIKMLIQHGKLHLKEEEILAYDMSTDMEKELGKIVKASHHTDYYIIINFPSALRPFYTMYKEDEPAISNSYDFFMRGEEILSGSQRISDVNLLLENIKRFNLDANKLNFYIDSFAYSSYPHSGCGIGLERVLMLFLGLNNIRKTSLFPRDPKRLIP

[5] = target: T2, truncated PvAspRS (96-631); experiment: X-ray crystal structure, […] Å; type: binding; settings: active site, both chains; Mg2+ in chain B
[6] = target: T3, native length PfAspRS (49-626) (Plasmodium falciparum, UniProt Q8I2B1); experiment: differential scanning fluorimetry after […] h incubation with substrates; type: binding; settings: AMS (10 or 50 µM) with 10 µM ATP, 20 µM L-Asp, 80 µM E. coli tRNA, 5 mM MgCl2, pH 8, 37 °C; reaction hijacking, covalent Asp-AMS adduct made by the enzyme; value is the Tm, not the shift
T3 construct: gene PF3D7_0102900; residues 49-626, cytoplasmic, codon-optimised, expressed in E. coli BL21(DE3), N-terminal His-tag removed with TEV protease, homodimer; observed mass 67831 Da
T3 sequence (Q8I2B1 49-626): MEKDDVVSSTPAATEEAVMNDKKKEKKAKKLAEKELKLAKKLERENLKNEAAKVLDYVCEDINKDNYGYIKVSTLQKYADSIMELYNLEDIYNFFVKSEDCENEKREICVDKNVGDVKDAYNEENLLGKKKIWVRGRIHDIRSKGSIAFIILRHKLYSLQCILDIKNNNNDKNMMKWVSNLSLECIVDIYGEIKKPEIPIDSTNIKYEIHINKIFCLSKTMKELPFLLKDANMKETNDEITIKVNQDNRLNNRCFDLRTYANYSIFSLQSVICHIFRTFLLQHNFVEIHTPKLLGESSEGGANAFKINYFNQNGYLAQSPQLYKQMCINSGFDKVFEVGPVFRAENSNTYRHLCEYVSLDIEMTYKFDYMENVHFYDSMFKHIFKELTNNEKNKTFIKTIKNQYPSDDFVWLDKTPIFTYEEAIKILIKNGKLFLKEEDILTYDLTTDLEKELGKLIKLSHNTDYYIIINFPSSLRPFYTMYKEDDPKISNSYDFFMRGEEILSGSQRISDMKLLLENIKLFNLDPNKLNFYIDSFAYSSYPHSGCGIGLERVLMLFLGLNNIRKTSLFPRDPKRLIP

[7] = target: T1, native length PvAspRS (51-631); experiment: as above; type: binding; settings: AMS (10 or 50 µM) with 10 µM ATP, 20 µM L-Asp, 80 µM E. coli tRNA, 5 mM MgCl2, pH 8, 37 °C; reaction hijacking, covalent Asp-AMS adduct made by the enzyme; value is the Tm, not the shift
[8] = target: T2, truncated PvAspRS (96-631); experiment: X-ray crystal structure, […] Å; type: binding; settings: active site of catalytic domain, both chains; possible radiation damage at the 2-Cl
[9] = target: T4, HsAspRS (1-501) (Homo sapiens, UniProt P14868); experiment: differential scanning fluorimetry; type: binding; settings: 2 or 5 µM synthetic Asp-DACM, pH 8, 37 °C, 3 h
T4 construct: gene DARS1; full-length 1-501, codon-optimised, expressed in E. coli BL21(DE3), His-tag removed with TEV protease, homodimer
T4 sequence (P14868 1-501): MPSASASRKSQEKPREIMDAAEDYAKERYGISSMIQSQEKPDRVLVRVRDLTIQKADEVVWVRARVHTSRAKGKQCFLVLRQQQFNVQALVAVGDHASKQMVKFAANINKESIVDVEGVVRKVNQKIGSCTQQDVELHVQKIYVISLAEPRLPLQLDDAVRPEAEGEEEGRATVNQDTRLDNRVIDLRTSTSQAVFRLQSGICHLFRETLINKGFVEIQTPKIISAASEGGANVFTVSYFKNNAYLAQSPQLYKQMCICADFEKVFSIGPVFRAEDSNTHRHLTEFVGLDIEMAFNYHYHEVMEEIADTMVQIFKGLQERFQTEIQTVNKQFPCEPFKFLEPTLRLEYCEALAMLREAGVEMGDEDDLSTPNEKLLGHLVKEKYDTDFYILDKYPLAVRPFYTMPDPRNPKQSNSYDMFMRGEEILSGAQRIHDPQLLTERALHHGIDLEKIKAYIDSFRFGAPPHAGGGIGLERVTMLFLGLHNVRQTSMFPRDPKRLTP

[10] = target: T3, native length PfAspRS (49-626); experiment: differential scanning fluorimetry; type: binding; settings: 2 or 5 µM synthetic Asp-DACM, pH 8, 37 °C, 3 h
[11] = target: T1, native length PvAspRS (51-631); experiment: differential scanning fluorimetry; type: binding; settings: 2 or 5 µM synthetic Asp-DACM, pH 8, 37 °C, 3 h
[12] = target: T3, native length PfAspRS (49-626); experiment: Kinase-Glo ATP consumption assay; type: biochemical; settings: 10 µM ATP, 200 µM L-Asp, 80 µM E. coli tRNA, 5 mM MgCl2, pyrophosphatase, pH 8, 37 °C
[13] = target: T2, truncated PvAspRS (96-631); experiment: Kinase-Glo ATP consumption assay; type: biochemical; settings: 10 µM ATP, 200 µM L-Asp, 80 µM E. coli tRNA, 5 mM MgCl2, pyrophosphatase, pH 8, 37 °C
[14] = target: T4, HsAspRS (1-501); experiment: Kinase-Glo ATP consumption assay; type: biochemical; settings: 10 µM ATP, 200 µM L-Asp, 160 µM E. coli tRNA, 5 mM MgCl2, pyrophosphatase, pH 8, 37 °C
[15] = target: T1, native length PvAspRS (51-631); experiment: Kinase-Glo ATP consumption assay; type: biochemical; settings: 10 µM ATP, 200 µM L-Asp, 80 µM E. coli tRNA, 5 mM MgCl2, pyrophosphatase, pH 8, 37 °C
[16] = target: native length PvAspRS (51-631), Plasmodium vivax aspartyl tRNA synthetase (P. vivax); experiment: SEC; gel filtration after removal of the His-tags; 25 mM or 50 mM Tris-HCl pH 8.0, 150 mM NaCl, 0.5 or 1 mM TCEP
[17] = target: T5, full-length HsAspRS (1-501), human aspartyl tRNA synthetase (human), P14868; experiment: as above; settings: remark: other sources report otherwise
T5 chain: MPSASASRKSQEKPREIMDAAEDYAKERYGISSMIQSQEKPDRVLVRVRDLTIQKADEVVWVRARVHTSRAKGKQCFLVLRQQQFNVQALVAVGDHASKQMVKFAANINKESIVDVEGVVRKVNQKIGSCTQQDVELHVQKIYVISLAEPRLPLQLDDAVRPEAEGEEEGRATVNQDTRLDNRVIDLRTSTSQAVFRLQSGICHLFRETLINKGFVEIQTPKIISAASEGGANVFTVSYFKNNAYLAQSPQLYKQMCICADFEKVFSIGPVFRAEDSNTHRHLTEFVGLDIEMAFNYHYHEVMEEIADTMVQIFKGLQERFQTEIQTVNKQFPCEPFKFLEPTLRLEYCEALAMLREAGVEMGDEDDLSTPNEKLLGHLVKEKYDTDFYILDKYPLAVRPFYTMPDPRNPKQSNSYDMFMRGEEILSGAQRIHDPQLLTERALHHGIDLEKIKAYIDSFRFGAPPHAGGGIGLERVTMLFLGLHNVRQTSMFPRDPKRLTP

Nc1nc(Cl)nc2c1ncn2[C@@H]1O[C@H](COS(N)(=O)=O)[C@@H](O)[C@H]1O [DACM, 5′-O-sulfamoyl-2-chloroadenosine]
ΔTm at 10 µM [1]: 19 °C

native length PfAspRS (49-626), Plasmodium falciparum cytoplasmic aspartyl tRNA synthetase (enzyme)
stoichiometry N [2]: 2 | stoichiometry N [3]: 2

Nc1ncnc2c1ncn2[C@@H]1O[C@H](COP(=O)(O)OC(=O)[C@@H](N)CC(=O)O)[C@@H](O)[C@H]1O [Asp-AMP]
X-ray crystal structure, 2.1 Å [4]: We also solved the structure of PvAspRS with the natural intermediate, Asp-AMP

Nc1ncnc2c1ncn2[C@@H]1O[C@H](COS(=O)(=O)NC(=O)[C@@H](N)CC(=O)O)[C@@H](O)[C@H]1O [Asp-AMS, 5′-O-(N-L-aspartate)-sulfamoyl-adenosine]
X-ray crystal structure, 1.8 Å [5]: We also solved the structure of PvAspRS with bound synthetic Asp-AMS

Nc1ncnc2c1ncn2[C@@H]1O[C@H](COS(N)(=O)=O)[C@@H](O)[C@H]1O [AMS]
Tm [6]: 57.0 °C | Tm [7]: 59.5 °C

Nc1nc(Cl)nc2c1ncn2[C@@H]1O[C@H](COS(=O)(=O)NC(=O)[C@@H](N)CC(=O)O)[C@@H](O)[C@H]1O [Asp-DACM, 2-chloro-5′-O-[N-(L-aspartyl)-sulfamoyl] adenosine]
X-ray crystal structure, 2.4 Å [8]: We solved the structure of PvAspRS with bound synthetic Asp-DACM | dTm [9]: synthetic Asp-DACM increased the Tm values of PfAspRS, PvAspRS and HsAspRS | dTm [10]: synthetic Asp-DACM increased the Tm values of PfAspRS, PvAspRS and HsAspRS | dTm [11]: synthetic Asp-DACM increased the Tm values of PfAspRS, PvAspRS and HsAspRS

Nc1ncnc2c1ncn2[C@@H]1O[C@H](COP(=O)(O)OP(=O)(O)OP(=O)(O)O)[C@@H](O)[C@H]1O [ATP]
Kinase-Glo ATP consumption assay [12]: Addition of EctRNA substantively increased the level of ATP consumption | Kinase-Glo ATP consumption assay [13]: marked increase in ATP consumption in the presence of EctRNA | Kinase-Glo ATP consumption assay [14]: Addition of EctRNA substantively increased the level of ATP consumption | Kinase-Glo ATP consumption assay [15]: Addition of EctRNA substantively increased the level of ATP consumption

native length PvAspRS (51-631), Plasmodium vivax aspartyl tRNA synthetase (enzyme)
stoichiometry N [16]: 2

B1: full-length HsAspRS (1-501), human aspartyl tRNA synthetase, P14868-1 1-501 (enzyme)
chain: MPSASASRKSQEKPREIMDAAEDYAKERYGISSMIQSQEKPDRVLVRVRDLTIQKADEVVWVRARVHTSRAKGKQCFLVLRQQQFNVQALVAVGDHASKQMVKFAANINKESIVDVEGVVRKVNQKIGSCTQQDVELHVQKIYVISLAEPRLPLQLDDAVRPEAEGEEEGRATVNQDTRLDNRVIDLRTSTSQAVFRLQSGICHLFRETLINKGFVEIQTPKIISAASEGGANVFTVSYFKNNAYLAQSPQLYKQMCICADFEKVFSIGPVFRAEDSNTHRHLTEFVGLDIEMAFNYHYHEVMEEIADTMVQIFKGLQERFQTEIQTVNKQFPCEPFKFLEPTLRLEYCEALAMLREAGVEMGDEDDLSTPNEKLLGHLVKEKYDTDFYILDKYPLAVRPFYTMPDPRNPKQSNSYDMFMRGEEILSGAQRIHDPQLLTERALHHGIDLEKIKAYIDSFRFGAPPHAGGGIGLERVTMLFLGLHNVRQTSMFPRDPKRLTP
stoichiometry N [17]: 2
